These results are taken from US20160158377A1, “BCL-XL Inhibitory Compounds and Antibody Drug Conjugates Including the Same” (AbbVie Inc., priority 2014, published 2016).

Like-named read-outs stand apart in the source and are kept apart here. Bounds are passed on as bounds.

In experiment [1] the target is Bcl-xL (Homo sapiens, UniProt Q07817). Briefly: TR-FRET Bcl-xL binding assay (competition with probe F-Bak). The procedure: For the assay, test compounds were serially diluted in DMSO starting at 50 μM (2× starting concentration; 10% DMSO) and 10 μL transferred into a 384-well plate. 10 μL of a protein/probe/antibody mix was then added to each well at final concentrations listed below:
The samples were then mixed on a shaker for 1 minute and incubated for an additional 2 hours at room temperature. For each assay plate, a probe/antibody and protein/antibody/probe mixture were included as a negative and a positive control, respectively. Fluorescence was measured on the Envision (Perkin Elmer) using a 340/35 nm excitation filter and 520/525 (F-Bak) and 495/510 nm (Tb-labeled anti-his antibody) emission filters. Dissociation constants (Ki) were determined using Wang's equation (Wang, 1995, FEBS Lett. 360:111-114). The TR-FRET assay can be performed in the presence of varying concentrations of human serum (HS) or fetal bovine serum (FBS). Compounds were tested both without HS and in the presence of 1% HS.
(In general: Time-resolved FRET reads energy transfer from a long-lived donor to a nearby acceptor.)

In experiment [2] the test system is Molt-4 human acute lymphoblastic leukemia cells. Briefly: Molt-4 cell viability assay. It is filed as cell-based. Particulars: 10% human serum, 48 hours, CellTiter-Glo, read-out: Molt-4 Viability EC50 (nM, 10% HS). The method, then:
In one exemplary set of conditions, Molt-4 (ATCC, Manassas, Va.) human acute lymphoblastic leukemia cells were plated 12,500 cells per well in 384-well tissue culture plates (Corning, Corning, N.Y.) in a total volume of 25 μL tissue culture medium supplemented with 10% human serum (Sigma-Aldrich, St. Louis, Mo.) and treated with a 3-fold serial dilution of the compounds of interest from 10 μM to 0.0005 μM. Each concentration was tested in duplicate at least 3 separate times. The number of viable cells following 48 hours of compound treatment was determined using the CellTiter-Glo® Luminescent Cell Viability Assay according to the manufacturer's recommendations (Promega Corp., Madison, Wis.). Compounds were tested in the presence of 10% HS.
A general note: In ATP-based viability assays light output follows the ATP content of the culture.

[3] abbreviates: in the presence of 1% human serum (HS), read-out: Bcl-xL Binding Ki (nM, 1% HS).
The mark [4] stands for this setting: without human serum, read-out: Bcl-xL Binding Ki.

Chain of Bcl-xL (Q07817 whole entry): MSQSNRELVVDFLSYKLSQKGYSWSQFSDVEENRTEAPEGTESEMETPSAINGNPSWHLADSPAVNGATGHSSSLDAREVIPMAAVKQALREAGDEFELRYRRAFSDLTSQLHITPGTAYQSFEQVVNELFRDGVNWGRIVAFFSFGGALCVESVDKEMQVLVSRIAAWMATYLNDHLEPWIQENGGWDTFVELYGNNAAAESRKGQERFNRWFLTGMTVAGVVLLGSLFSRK

Regarding `CNCCOC12CC3(C)CC(C)(CC(Cn4ncc(-c5ccc(-c6ccc7c(c6)N(C(=O)Nc6nc8ccccc8s6)CCC7)nc5C(=O)O)c4C)(C3)C1)C2` [Compound W3.01, 6-[1-(1,3-benzothiazol-2-ylcarbamoyl)-1,2,3,4-tetrahydroquinolin-7-yl]-3-[1-({3,5-dimethyl-7-[2-(methylamino)ethoxy]tricyclo[3.3.1.1^3,7]dec-1-yl}methyl)-5-methyl-1H-pyrazol-4-yl]pyridine-2-carboxylic acid], the Ki (usually the equilibrium dissociation constant of an inhibitor or competing ligand from its target) in experiment [1] (setting [3]) was 0.009 nM; in experiment [1] (setting [4]), less than 0.001 nM. In addition, the EC50 (commonly the midpoint of the concentration-response curve) in experiment [2] stood at 0.3 nM.
On to `Cc1c(-c2ccc(-c3ccc4cccc(C(=O)Nc5nc6ccccc6s5)c4c3)nc2C(=O)O)cnn1CC12CC3(C)CC(C)(C1)CC(OCCNCCCO)(C3)C2` [Compound W3.37, 6-[8-(1,3-benzothiazol-2-ylcarbamoyl)naphthalen-2-yl]-3-{1-[(3-{2-[(3-hydroxypropyl)amino]ethoxy}-5,7-dimethyltricyclo[3.3.1.1^3,7]dec-1-yl)methyl]-5-methyl-1H-pyrazol-4-yl}pyridine-2-carboxylic acid], for which the Ki in experiment [1] (setting [3]) came to 0.58 nM; in experiment [1] (setting [4]) it was 0.03 nM. For the same molecule, in experiment [2], the EC50 was found to be 10.8 nM.
`Cc1c(-c2ccc(N3CCc4cccc(C(=O)Nc5nc6ccccc6s5)c4C3)nc2C(=O)O)cnn1CC12CC3(C)CC(C)(C1)CC(OCCNCCS(N)(=O)=O)(C3)C2` [Compound W3.18, 6-[8-(1,3-benzothiazol-2-ylcarbamoyl)-3,4-dihydroisoquinolin-2(1H)-yl]-3-{1-[(3,5-dimethyl-7-{2-[(2-sulfamoylethyl)amino]ethoxy}tricyclo[3.3.1.1^3,7]dec-1-yl)methyl]-5-methyl-1H-pyrazol-4-yl}pyridine-2-carboxylic acid]: the Ki in experiment [1] (setting [3]) amounted to 0.19 nM; in experiment [1] (setting [4]) it was 0.038 nM. Besides, in experiment [2], the EC50 was 14 nM.
For `Cc1c(-c2ccc(N3CCc4cccc(C(=O)Nc5nc6ccccc6s5)c4C3)nc2C(=O)O)cnn1CC12CC3(C)CC(C)(C1)CC(OCCNCCC(N)=O)(C3)C2` [Compound W3.32, 3-{1-[(3-{2-[(3-amino-3-oxopropyl)amino]ethoxy}-5,7-dimethyltricyclo[3.3.1.1^3,7]dec-1-yl)methyl]-5-methyl-1H-pyrazol-4-yl}-6-[8-(1,3-benzothiazol-2-ylcarbamoyl)-3,4-dihydroisoquinolin-2(1H)-yl]pyridine-2-carboxylic acid] the same measures were 0.365 nM, less than 0.01 nM and 108 nM.
On to `CNCCOC12CC3(C)CC(C)(CC(Cn4ncc(-c5ccc(-c6[nH]c7c(C(=O)Nc8nc9ccccc9s8)cccc7c6C)nc5C(=O)O)c4C)(C3)C1)C2` [Compound W3.29, 6-[7-(1,3-benzothiazol-2-ylcarbamoyl)-3-methyl-1H-indol-2-yl]-3-[1-({3,5-dimethyl-7-[2-(methylamino)ethoxy]tricyclo[3.3.1.1^3,7]dec-1-yl}methyl)-5-methyl-1H-pyrazol-4-yl]pyridine-2-carboxylic acid], for which the inhibition constant (Ki) was 0.09 nM in experiment [1] (setting [3]) and less than 0.01 nM in experiment [1] (setting [4]). For the same molecule, in experiment [2], the EC50 was 185 nM.
For `COCCNCCOC12CC3(C)CC(C)(CC(Cn4ncc(-c5ccc(-c6ccc7cccc(C(=O)Nc8nc9ccccc9s8)c7c6)nc5C(=O)O)c4C)(C3)C1)C2` [Compound W3.15, 6-[8-(1,3-benzothiazol-2-ylcarbamoyl)naphthalen-2-yl]-3-{1-[(3-{2-[(2-methoxyethyl)amino]ethoxy}-5,7-dimethyltricyclo[3.3.1.1^3,7]dec-1-yl)methyl]-5-methyl-1H-pyrazol-4-yl}pyridine-2-carboxylic acid] the same measures were 0.1 nM, less than 0.001 nM and 2.5 nM.
Consider `CNCCOC12CC3(C)CC(C)(CC(Cn4ncc(-c5ccc(-c6ccc7cncc(C(=O)Nc8nc9ccccc9s8)c7c6)nc5C(=O)O)c4C)(C3)C1)C2` [Compound W3.26, 6-[4-(1,3-benzothiazol-2-ylcarbamoyl)isoquinolin-6-yl]-3-[1-({3,5-dimethyl-7-[2-(methylamino)ethoxy]tricyclo[3.3.1.1^3,7]dec-1-yl}methyl)-5-methyl-1H-pyrazol-4-yl]pyridine-2-carboxylic acid], for which the Ki in experiment [1] (setting [3]) was 0.083 nM; in experiment [1] (setting [4]), less than 0.02 nM. Also, the EC50 in experiment [2] stood at 4.3 nM.
With `COCCNCCOC12CC3(C)CC(C)(CC(Cn4ncc(-c5ccc(-c6ccc7c(c6)N(C(=O)Nc6nc8ccccc8s6)CCC7)nc5C(=O)O)c4C)(C3)C1)C2` [Compound W3.14, 6-[1-(1,3-benzothiazol-2-ylcarbamoyl)-1,2,3,4-tetrahydroquinolin-7-yl]-3-{1-[(3-{2-[(2-methoxyethyl)amino]ethoxy}-5,7-dimethyltricyclo[3.3.1.1^3,7]dec-1-yl)methyl]-5-methyl-1H-pyrazol-4-yl}pyridine-2-carboxylic acid], the values for the Ki in experiment [1] (setting [3]) and in experiment [1] (setting [4]) were 0.014 nM and less than 0.001 nM, respectively. Besides, the EC50 in experiment [2] amounted to 1.8 nM.
In the case of `COCCNCCOC12CC3(C)CC(C)(CC(Cn4ncc(-c5ccc(N6CCc7c(OC)ccc(C(=O)Nc8nc9ccccc9s8)c7C6)nc5C(=O)O)c4C)(C3)C1)C2` [Compound W3.12, 6-[8-(1,3-benzothiazol-2-ylcarbamoyl)-5-methoxy-3,4-dihydroisoquinolin-2(1H)-yl]-3-{1-[(3-{2-[(2-methoxyethyl)amino]ethoxy}-5,7-dimethyltricyclo[3.3.1.1^3,7]dec-1-yl)methyl]-5-methyl-1H-pyrazol-4-yl}pyridine-2-carboxylic acid], the Ki came to 0.051 nM in experiment [1] (setting [3]) and 0.0042 nM in experiment [1] (setting [4]). For the same molecule, the EC50 in experiment [2] stood at 2.6 nM.
Take `CNCCOC12CC3(C)CC(C)(CC(Cn4ncc(-c5ccc(-c6ccc7[nH]nc(C(=O)Nc8nc9ccccc9s8)c7c6)nc5C(=O)O)c4C)(C3)C1)C2` [Compound W3.33, 6-[3-(1,3-benzothiazol-2-ylcarbamoyl)-1H-indazol-5-yl]-3-[1-({3,5-dimethyl-7-[2-(methylamino)ethoxy]tricyclo[3.3.1.1^3,7]dec-1-yl}methyl)-5-methyl-1H-pyrazol-4-yl]pyridine-2-carboxylic acid]: the Ki turned out to be 0.319 nM in experiment [1] (setting [3]) and 0.044 nM in experiment [1] (setting [4]). Further, in experiment [2], the EC50 was 422 nM.
Consider `Cc1c(-c2ccc(N3CCn4cnc(C(=O)Nc5nc6ccccc6s5)c4C3)nc2C(=O)O)cnn1CC12CC3(C)CC(C)(C1)CC(OCCN)(C3)C2` [Compound W3.04, 3-(1-{[3-(2-aminoethoxy)-5,7-dimethyltricyclo[3.3.1.1^3,7]dec-1-yl]methyl}-5-methyl-1H-pyrazol-4-yl)-6-[1-(1,3-benzothiazol-2-ylcarbamoyl)-5,6-dihydroimidazo[1,5-a]pyrazin-7(8H)-yl]pyridine-2-carboxylic acid], for which the results for the Ki in experiment [1] (setting [3]) and in experiment [1] (setting [4]) were 0.049 nM and less than 0.001 nM, respectively. In addition, the EC50 in experiment [2] turned out to be 58.9 nM.
Turning to `CNCCOC12CC3(C)CC(C)(CC(Cn4ncc(-c5ccc(-c6ccc7c(c6)N(C(=O)Nc6nc8ccccc8s6)CCO7)nc5C(=O)O)c4C)(C3)C1)C2` [Compound W3.02], the values for the Ki in experiment [1] (setting [3]) and in experiment [1] (setting [4]) were 0.047 nM and less than 0.001 nM, respectively. Further, in experiment [2], the EC50 stood at 0.5 nM.
